Results from US20220152150A1, “MESOPOROUS SILICA PARTICLES COMPOSITIONS FOR VIRAL DELIVERY” (Novartis AG, priority 2019, published 2022).

Tested on: EGFRvIII CARTs
Assay: Cytokine production of EGFRvIII CARTs stimulated by ligand-presenting MSRs (multiplex cytokine analysis)
Format: cell-based
Settings: lipid-coated MSRs, 1% PE-biotin in the lipid coating; FIG. 8
Description: MSRs with surface-immobilized ligands were prepared as described in Cheung, A. S., et al., Scaffolds that mimic antigen-presenting cells enable ex vivo expansion of primary T cells. Nature Biotechnology, 36(2), 160-169.
Briefly, liposomes primarily composed of POPC with 1 mol % PE-biotin were formed using a thin film rehydration method and extrusion through a 100 nm polycarbonate membrane. Hydroxyl functionalized MSRs were incubated with the liposomes to allow the formation of a supported lipid bilayer on the MSR surface (FIG. 6). To functionalize the MSRs with CD3 and CD28 agonistic antibodies, MSRs were washed several times with PBS, incubated with streptavidin, and then tethered with biotinylated CD3 and CD28 antibodies. For MSR-immobilization of EGFRvIII CAR-binding peptides, a biotinylated EGFRvIII CAR-binding peptide was used (FIG. 7). For BCMA CART stimulation, recombinant BCMAFc protein was biotinylated using biotin-NHS and similarly coupled to the MSR surface.
After incubation with the desired ligands, MSRs were washed several times with PBS and resuspended in culture medium at various concentrations and incubated with T cells. T cell proliferation was read out using CFSE labeling of the T cells and assessing dye dilution by flow cytometry. Cytokine production was assessed using a multiplex cytokine analysis method (Mesoscale […] V-Plex).
EGFRvIII CARTs produced interferon gamma and IL-2 in response to EGFRvIII CAR-binding peptide bound to the surface of the MSRs, while free EGFRvIII CAR-binding peptide in solution, a non-stimulating peptide (OVA) presented on the MSRs, or undecorated MSRs gave no response from the CARTs (FIG. 8). In another experiment, the proliferation of EGFRvIII CARTs were monitored in response to various stimuli using cell counting (FIG. 9).

Substance | IL-2 production | interferon gamma production
EGFRvIII CAR-binding peptide bound to the surface of the MSRs: biotinylated EGFRvIII CAR-binding peptide (LEEKKGNYVVTDH, SEQ ID NO: 674) immobilized via streptavidin on lipid-coated MSRs | produced | produced
free EGFRvIII CAR-binding peptide: EGFRvIII CAR-binding peptide (LEEKKGNYVVTDH (SEQ ID NO: 674)) free in solution | no response | no response
